Measured values published in ChEMBL document CHEMBL2216749, “Recent developments and biological activities of thiazolidinone derivatives: a review” (Bioorg Med Chem, 2012).
Converted amounts (≈) assume the structure as drawn.

Legend:
Trypanosoma cruzi = test: Growth inhibition of Trypanosoma cruzi at 100 ug/ml; type: functional; conditions: read-out: GI
[1] = biological target: Phosphotyrosine-protein phosphatase PTPB (Mycobacterium tuberculosis, UniProt P96830); test: Inhibition of Mycobacterium tuberculosis protein tyrosine phosphatase B
Bacillus subtilis = test: Antibacterial activity against Bacillus subtilis; type: functional
[2] = tested on: Mycobacterium tuberculosis; test: Growth inhibition of Mycobacterium tuberculosis H37Rv; type: functional
[3] = biological target: Muscarinic acetylcholine receptor M1 (Rattus norvegicus, UniProt P08482); test: Displacement of [3H]QNB from M1 receptor in Wistar rat cerebral cortex homogenate; type: tissue-based
[4] = tested on: Ditylenchus myceliophagus; test: Nematicidal activity against Ditylenchus myceliophagus after 2 days; type: functional; conditions: 48 h, read-out: LD50 (the source's name)
Human alphaherpesvirus 1 = test: Antiviral activity against Herpes simplex virus 1 KOS; type: functional, organism-based; conditions: Human alphaherpesvirus 1, KOS
Human alphaherpesvirus 2 = test: Antiviral activity against Herpes simplex virus 2; type: functional, organism-based
Influenza A virus = test: Antiviral activity against Influenza A virus H3N2; type: functional, organism-based
Influenza B virus = test: Antiviral activity against influenza B virus; type: functional, organism-based
Rattus norvegicus = test: Antiinflammatory activity in rat assessed as inhibition of carageenaan-induced paw edema relative to control; type: functional
Caenorhabditis elegans = test: Nematicidal activity against Caenorhabditis elegans after 2 days; type: functional; conditions: 48 h, read-out: LD50 (the source's name)
[5] = tested on: Mycobacterium tuberculosis; test: Growth inhibition of Mycobacterium tuberculosis H37Rv at 6.25 ug/ml; type: functional; conditions: read-out: GI
[6] = biological target: C-C chemokine receptor type 4 (Homo sapiens, UniProt P51679); test: Antagonist activity at CCR4; type: functional
Escherichia coli = test: Antibacterial activity against Escherichia coli; type: functional
Salmonella typhimurium = test: Antibacterial activity against Salmonella typhimurium; type: functional, Salmonella enterica subsp. enterica serovar Typhimurium
[7] = tested on: Mycobacterium tuberculosis; test: Antimycobacterial activity against Mycobacterium tuberculosis H37Rv by alamar blue susceptibility assay; type: functional
[8] = biological target: T1, Human immunodeficiency virus type 1 integrase (Human immunodeficiency virus 1, UniProt Q7ZJM1); test: Inhibition of HIV1 integrase 3' processing activity
[9] = biological target: T1, Human immunodeficiency virus type 1 integrase; test: Inhibition of HIV1 integrase strand transfer activity
[10] = Inhibition of HIV reverse transcriptase; set-up: species or system Human immunodeficiency virus
[11] = tested on: Bovine viral diarrhea virus 1; test: Antiviral activity against Bovine viral diarrhea virus; type: functional, organism-based; conditions: Bovine viral diarrhea virus isolates and strains
[12] = tested on: Human immunodeficiency virus 1; test: Antiviral activity against HIV1; type: functional, organism-based
[13] = biological target: Tyrosine-protein phosphatase non-receptor type 1 (Homo sapiens, UniProt P18031); test: Inhibition of GST-tagged PTP1B using pNPP as substrate by spectrophotometric analysis
[14] = biological target: T2, Follicle-stimulating hormone receptor (Homo sapiens, UniProt P23945); test: Allosteric activation of human FSH receptor
T2 sequence (P23945 whole entry): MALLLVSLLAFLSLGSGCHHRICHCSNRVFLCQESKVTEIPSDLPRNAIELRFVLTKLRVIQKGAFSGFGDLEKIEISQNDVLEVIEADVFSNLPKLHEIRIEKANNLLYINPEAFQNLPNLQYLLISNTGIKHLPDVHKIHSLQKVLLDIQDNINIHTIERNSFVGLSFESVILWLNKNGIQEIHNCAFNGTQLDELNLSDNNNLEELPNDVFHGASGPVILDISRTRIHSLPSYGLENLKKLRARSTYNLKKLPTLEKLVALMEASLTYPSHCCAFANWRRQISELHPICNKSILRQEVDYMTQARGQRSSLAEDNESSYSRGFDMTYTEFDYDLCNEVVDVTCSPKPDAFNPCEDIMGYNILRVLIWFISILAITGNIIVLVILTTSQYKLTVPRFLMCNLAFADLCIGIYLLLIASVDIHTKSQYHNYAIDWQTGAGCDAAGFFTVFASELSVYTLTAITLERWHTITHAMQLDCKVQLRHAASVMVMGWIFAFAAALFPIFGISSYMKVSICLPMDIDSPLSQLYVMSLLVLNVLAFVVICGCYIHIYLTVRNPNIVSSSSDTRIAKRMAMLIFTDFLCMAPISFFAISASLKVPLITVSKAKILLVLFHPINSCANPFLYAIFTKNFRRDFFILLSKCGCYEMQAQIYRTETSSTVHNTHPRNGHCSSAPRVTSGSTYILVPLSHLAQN

Trypanosoma = test: Growth inhibition of epimastigote form of Trypanosoma at 100 ug/ml; type: functional; conditions: read-out: GI
[15] = biological target: T2, Follicle-stimulating hormone receptor; test: Agonist activity at human FSH receptor by cAMP-based assay; type: functional
[16] = biological target: T2, Follicle-stimulating hormone receptor; test: Agonist activity at human FSH receptor by aromatase-based assay; type: functional

Chain of Muscarinic acetylcholine receptor M1 (P08482 whole entry): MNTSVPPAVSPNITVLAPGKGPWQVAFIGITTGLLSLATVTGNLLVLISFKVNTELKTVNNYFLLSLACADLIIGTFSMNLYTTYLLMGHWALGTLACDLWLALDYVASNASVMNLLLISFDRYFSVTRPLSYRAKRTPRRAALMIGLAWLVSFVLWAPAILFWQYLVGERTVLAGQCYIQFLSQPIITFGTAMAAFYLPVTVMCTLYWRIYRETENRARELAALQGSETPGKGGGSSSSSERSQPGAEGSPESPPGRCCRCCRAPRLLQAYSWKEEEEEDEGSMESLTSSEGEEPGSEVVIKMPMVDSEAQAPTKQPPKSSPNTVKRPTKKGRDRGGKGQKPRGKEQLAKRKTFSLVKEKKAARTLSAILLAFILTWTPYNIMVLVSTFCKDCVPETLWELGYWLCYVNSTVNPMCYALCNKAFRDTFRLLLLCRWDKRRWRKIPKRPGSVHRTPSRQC
T1 sequence (Q7ZJM1 whole entry): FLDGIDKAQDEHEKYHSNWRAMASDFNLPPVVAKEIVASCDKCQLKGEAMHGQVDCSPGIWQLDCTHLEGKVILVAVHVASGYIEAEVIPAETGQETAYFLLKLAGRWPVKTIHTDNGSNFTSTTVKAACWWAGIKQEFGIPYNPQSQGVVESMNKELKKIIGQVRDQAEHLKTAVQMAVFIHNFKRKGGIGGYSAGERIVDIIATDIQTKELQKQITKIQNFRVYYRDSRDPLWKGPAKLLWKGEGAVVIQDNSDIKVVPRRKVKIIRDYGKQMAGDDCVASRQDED
Chain of Phosphotyrosine-protein phosphatase PTPB (P96830 whole entry): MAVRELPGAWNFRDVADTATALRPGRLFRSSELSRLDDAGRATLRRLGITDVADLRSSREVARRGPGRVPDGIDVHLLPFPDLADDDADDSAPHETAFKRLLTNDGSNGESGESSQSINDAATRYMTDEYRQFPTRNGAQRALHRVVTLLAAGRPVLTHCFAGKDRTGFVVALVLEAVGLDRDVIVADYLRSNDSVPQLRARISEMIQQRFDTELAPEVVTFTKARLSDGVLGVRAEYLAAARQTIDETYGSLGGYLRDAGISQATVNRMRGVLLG
Chain of C-C chemokine receptor type 4 (P51679 whole entry): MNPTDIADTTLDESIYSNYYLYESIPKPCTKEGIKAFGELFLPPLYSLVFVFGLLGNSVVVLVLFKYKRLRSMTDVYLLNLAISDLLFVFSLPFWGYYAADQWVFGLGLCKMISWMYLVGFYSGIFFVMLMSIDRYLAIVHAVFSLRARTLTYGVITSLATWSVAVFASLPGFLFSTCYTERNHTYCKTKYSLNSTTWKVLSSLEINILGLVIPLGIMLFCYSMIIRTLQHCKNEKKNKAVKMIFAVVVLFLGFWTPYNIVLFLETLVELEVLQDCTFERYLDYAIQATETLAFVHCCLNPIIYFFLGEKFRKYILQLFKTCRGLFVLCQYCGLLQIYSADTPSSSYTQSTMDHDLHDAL
Chain of Tyrosine-protein phosphatase non-receptor type 1 (P18031 whole entry): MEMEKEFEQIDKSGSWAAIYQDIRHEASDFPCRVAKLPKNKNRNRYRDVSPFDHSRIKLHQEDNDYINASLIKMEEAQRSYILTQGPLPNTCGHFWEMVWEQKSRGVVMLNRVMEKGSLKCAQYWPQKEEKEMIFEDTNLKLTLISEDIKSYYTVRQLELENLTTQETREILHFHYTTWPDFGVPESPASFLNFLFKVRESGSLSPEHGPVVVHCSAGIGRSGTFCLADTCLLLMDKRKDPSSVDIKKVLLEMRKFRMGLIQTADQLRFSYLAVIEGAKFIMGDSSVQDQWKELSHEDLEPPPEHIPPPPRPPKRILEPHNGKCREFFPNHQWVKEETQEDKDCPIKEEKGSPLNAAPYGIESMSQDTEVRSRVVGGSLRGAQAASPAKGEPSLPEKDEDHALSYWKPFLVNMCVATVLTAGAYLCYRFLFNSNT

With `CNC(=O)CC1S/C(=N\N=C(/C)c2cccc(Br)c2)N(C)C1=O` (centres undefined) the inhibition of growth at 100 µg/mL (Trypanosoma cruzi) was 60%.

Work on `O=C1CS(=O)(=O)C2(C(=O)N(Cc3ccc(Br)cc3)c3ccc([N+](=O)[O-])cc32)N1c1ccc(F)c(F)c1` (centres undefined) yielded an IC50 [1] of 1.1 µM.

In the case of `O=C(N/N=C1/SCC(=O)N1c1ccccc1)c1cc(-c2cc3ccccc3o2)n(-c2ccccc2)n1`, the “inhibition zone (IZ)” value (Bacillus subtilis) is reported as 40 mm.

`O=c1oc2ccccc2cc1-c1cs/c(=N\N=C\c2ccc(Cl)c(Cl)c2)n1C1CCCCC1` showed an Imax [2] of 42%.

`Cc1ccc(C2SCC(=O)N2C2=CCCN(C)C2)cc1` (centres undefined) showed an IC50 [3] of 143 µM and a Ki [3] of 26 µM.

Work on `COc1ccc(Cc2cccc(C3SC(CC(=O)O)C(=O)N3c3cccc(O)c3)c2)cc1C1SC(CC(=O)O)C(=O)N1c1cccc(O)c1` (centres undefined) yielded an LC50 [4] of 210 µg/mL (≈ 300 µM).

`Cc1cc(C)nc(N2C(=O)CSC2c2c(C)cccc2C)c1` (centres undefined) showed an EC50 (Human alphaherpesvirus 1) of 130 µM, an EC50 (Human alphaherpesvirus 2) of 161 µM and an EC50 (Influenza A virus) of 249 µM. For the same compound, the EC50 (Influenza B virus) was 263 µM.

With `Cc1ccc(-c2cc(C(F)(F)F)nn2-c2ccc(S(N)(=O)=O)cc2)cc1` [CELECOXIB] the “inhibition (INH)” value (Rattus norvegicus) was 45%.

In the case of `COc1ccc(Cc2cccc(C3SCC(=O)N3c3cccc(O)c3)c2)cc1C1SCC(=O)N1c1cccc(O)c1` (centres undefined), the LC50 (Caenorhabditis elegans) is reported as 240 µg/mL (≈ 410 µM).

`COc1ccc(C(=O)Nc2ccc(C(=O)NN3C(=O)CSC3c3ccc(F)cc3)cc2)cc1` (centres undefined) gave an inhibition of growth at 6.25 µg/mL [5] of 98%.

With `C[C@H](NC(=O)C[C@H]1S[C@H](c2ccc(Cl)cc2Cl)N(CC(=O)NCCCN2CCCCC2)C1=O)c1cccc2ccccc12` the IC50 [6] was 0.11 µM.

In the case of `CC1C(N2C(=O)CSC2c2cc(I)cc(I)c2O)C(=O)N(c2ccccc2)N1C` (centres undefined), the “inhibition zone (IZ)” value (Escherichia coli) is reported as 27 mm, the “inhibition zone (IZ)” value (Bacillus subtilis) is reported as 24 mm and the “inhibition zone (IZ)” value (Salmonella typhimurium) is reported as 25 mm.

With `COc1cc(C2SCC(=O)N2NC(=O)c2ccncc2)ccc1O` (centres undefined) the MIC [7] was 0.31 µg/mL (≈ 0.898 µM).

With `NS(=O)(=O)c1ccc(N2C(=O)CSC2c2ccccc2)cc1` (centres undefined) the “inhibition (INH)” value (Rattus norvegicus) was 78%.

`COc1ccc(C(=O)Nc2ccc(C(=O)NN3C(=O)CSC3c3coc([N+](=O)[O-])c3)cc2)cc1` (centres undefined) gave an inhibition of growth at 6.25 µg/mL [5] of 90%.

`O=C(Nc1ccc(O)cc1)C(=S)NN1C(=O)/C(=C\c2cc(I)cc(I)c2O)SC1=S` gave an IC50 [8] of 7 µM and an IC50 [9] of 3 µM.

With `Cc1c(N2C(=O)CSC2c2cc(I)cc(I)c2O)c(=O)n(-c2ccccc2)n1C` (centres undefined) the “inhibition zone (IZ)” value (Escherichia coli) was 27 mm, the “inhibition zone (IZ)” value (Bacillus subtilis) was 24 mm and the “inhibition zone (IZ)” value (Salmonella typhimurium) was 25 mm.

Work on `Cc1nc(N2C(=O)CSC2c2ccccc2Cl)nc(C)c1C` (centres undefined) yielded an IC50 [10] of 2.95 µM.

`CC1S/C(=N/N=C2\C(=O)Nc3ccc([N+](=O)[O-])cc32)N(c2ccc(Br)cc2)C1=O` (centres undefined) gave an EC50 [11] of 13 µg/mL (≈ 27.4 µM).

`Cc1cccc(N2C(=O)CSC2c2ccccn2)n1` (centres undefined) gave an EC50 [12] of 0.0078 µM.

Work on `O=C(O)CN1C(=O)/C(=C/c2ccc(-c3ccc(OCc4ccccc4)cc3)cc2)SC1=S` yielded an IC50 [13] of 0.48 µM.

Work on `COc1ccc(CCNC(=O)C[C@H]2S[C@@H](c3ccc(C#Cc4ccccc4)cc3)N(c3ccc(C(N)=O)c(Cl)c3)C2=O)cc1OC` yielded an EC50 [14] of 0.001 µM.

In the case of `O=C1CSC(c2cccc3ccccc23)N1c1ccc(Br)cc1` (centres undefined), the inhibition of growth at 100 µg/mL (Trypanosoma) is reported as 91.4%.

`CCOc1cc(CCNC(=O)C[C@H]2S[C@@H](c3ccc(C#Cc4ccccc4)cc3)NC2=O)ccc1OC` showed an EC50 [15] of 0.08 µM and an EC50 [16] of 0.05 µM.
